Series [1] concerns the target T1, cytosolic nucleotidase II (LpcN-II) (Legionella pneumophila, UniProt Q5ZZB6). The class given is biochemical.
The target of series [2] is T1, cytosolic nucleotidase II (LpcN-II). Kind of series: biochemical. In kind it is binding.
The test system of series [3] is O=[N+]([O-])c1ccc(OP(=O)(O)O)cc1. The series is described as follows: purified protein.
Series [4] has as its target T1, cytosolic nucleotidase II (LpcN-II). The class given is biochemical. This is another data set of the same source.
Series [5] shares this target. In kind it is biochemical. The source holds these as a separate data set.

The values that follow come from paper PMC3982195 (The FEBS journal, 2014).

By Kd is commonly meant the concentration at which binding is half-saturated. Higher therefore signals weaker binding. Broadly, the kcat/Km is the second-order rate constant that governs catalysis at low substrate concentration.

T1 sequence (Q5ZZB6 1-459 limits assumed): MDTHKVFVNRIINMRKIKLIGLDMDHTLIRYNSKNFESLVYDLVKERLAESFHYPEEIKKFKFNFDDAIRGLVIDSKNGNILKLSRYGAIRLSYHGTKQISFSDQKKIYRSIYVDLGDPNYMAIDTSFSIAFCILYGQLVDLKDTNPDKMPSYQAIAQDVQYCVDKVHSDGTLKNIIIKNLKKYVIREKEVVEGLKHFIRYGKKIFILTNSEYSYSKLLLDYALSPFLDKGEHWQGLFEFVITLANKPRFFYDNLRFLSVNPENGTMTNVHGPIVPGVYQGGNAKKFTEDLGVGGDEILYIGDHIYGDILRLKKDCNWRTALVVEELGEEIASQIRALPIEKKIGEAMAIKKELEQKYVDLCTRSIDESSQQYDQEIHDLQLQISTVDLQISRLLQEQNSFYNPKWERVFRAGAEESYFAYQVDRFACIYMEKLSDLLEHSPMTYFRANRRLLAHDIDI

In the case of `Nc1nc2c(ncn2[C@@H]2O[C@H](COP(=O)(O)OP(=O)(O)O)[C@@H](O)[C@H]2O)c(=O)[nH]1` [GDP], the “activation of pNPP hydrolysis; competition with GTP” value in series [1] is “GDP was also found to compete for binding to the GTP binding site”.
Consider `Nc1nc2c(ncn2[C@@H]2O[C@H](COP(=O)(O)OP(=O)(O)OP(=O)(O)O)[C@@H](O)[C@H]2O)c(=O)[nH]1` [GTP], for which the equilibrium dissociation constant (Kd) in series [2] turned out to be 4.1 ± 0.7 mM.
For the compound “cytosolic nucleotidase II (LpcN-II) (Legionella pneumophila subsp. pneumophila str. Philadelphia 1)”, in series [3], the K0.5 amounted to 5.1 ± 0.9 mM and the kcat/Km was found to be 0.1 M⁻¹ s⁻¹.
`O=c1[nH]cnc2c1ncn2[C@@H]1O[C@H](COP(=O)(O)OP(=O)(O)OP(=O)(O)O)[C@@H](O)[C@H]1O` [ITP]: the “competitive reduction of GTP activation of pNPP hydrolysis” value in series [4] was “indicate that IMP and ITP bind to the GTP-binding site”.
Consider `Nc1nc2c(ncn2[C@H]2C[C@H](O)[C@@H](COP(=O)(O)OP(=O)(O)OP(=O)(O)O)O2)c(=O)[nH]1` [dGTP], for which, in series [5], the “activation of pNPP hydrolysis by purified enzyme” value was “GTP, dGTP, and GDP showed activation of LpcN-II activity”.
